Some test systems named below: EKVX NSCLC; HOP-62 NSCLC; HOP-92 NSCLC; IGROV1 ovarian; NCI-H460 lung; OVCAR-8 ovarian; SK-OV-3 ovarian; SW-620 colon; TK-10 renal; UO-31 renal.
Holding throughout (assay): NCI anticancer screen, dose series, 48 h

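Tested at 5 concentrations; 48 h exposure; 96-well plates; endpoints linearly interpolated, else capped at highest concentration. GI50 = concentration required for 50% inhibition of growth. TGI: total growth inhibition.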 Bounds are passed on as bounds.

`O=C(NCCSSCCNC(=O)/C(Cc1ccc(O)c(Br)c1)=N/O)/C(Cc1ccc(O)c(Br)c1)=N/O`: the TGI with EKVX NSCLC is above 24 µM; in the assay on HOP-62 NSCLC, 6.1 µM; in the assay on HOP-92 NSCLC, 22.9 µM; with IGROV1 ovarian it was 7.15 µM; in the assay with NCI-H460 lung, above 20.6 µM; in the assay on OVCAR-8 ovarian, above 50 µM. Besides, the TGI with SK-OV-3 ovarian is 3.32 µM; in the assay with SW-620 colon, 14.3 µM; with TK-10 renal, above 22.4 µM; in the assay on UO-31 renal, 8.58 µM.

On to `O=C1c2ccccc2-c2c1c1c(O)cccc1n2CCCc1ccccc1`, for which the GI50 was 10.3 µM in the assay on EKVX NSCLC; 43 µM in the assay with HOP-62 NSCLC; 45.3 µM in the assay on HOP-92 NSCLC; 17.1 µM with IGROV1 ovarian; 29.7 µM in the assay with NCI-H460 lung; 31.7 µM in the assay on OVCAR-8 ovarian. Moreover, the GI50 with SK-OV-3 ovarian is 84.3 µM; with SW-620 colon, 51.9 µM; in the assay on TK-10 renal, 10.1 µM; in the assay on UO-31 renal, 7.66 µM. Moreover, the TGI in the assay on EKVX NSCLC was 98.3 µM; in the assay with HOP-62 NSCLC, above 100 µM; in the assay with HOP-92 NSCLC it was above 100 µM; in the assay on IGROV1 ovarian, above 100 µM; in the assay with NCI-H460 lung, above 100 µM; in the assay with OVCAR-8 ovarian, above 100 µM. The TGI in the assay on SK-OV-3 ovarian is above 100 µM; in the assay with SW-620 colon, above 100 µM; with TK-10 renal, 56.7 µM; in the assay on UO-31 renal, above 100 µM.

On to `Oc1[nH]c2ccc(Cl)cc2c1/C=c1/ccc2c(c1)N=C(c1ccc(C(F)(F)F)cc1)N=2`, for which the GI50 in the assay with EKVX NSCLC was 3.16 µM; in the assay on HOP-62 NSCLC, 2.28 µM; in the assay with HOP-92 NSCLC, 1.68 µM; in the assay on IGROV1 ovarian, 3.35 µM; in the assay with NCI-H460 lung it was 1.88 µM; in the assay on OVCAR-8 ovarian, 3.17 µM. For the same compound, the GI50 in the assay on SK-OV-3 ovarian is 4.19 µM; with SW-620 colon it was 1.97 µM; with TK-10 renal, 3.62 µM; in the assay on UO-31 renal it was 2.56 µM. Also, the TGI came out at 18.3 µM in the assay on EKVX NSCLC; 4.78 µM in the assay with HOP-62 NSCLC; 4.35 µM with HOP-92 NSCLC; 14.2 µM in the assay with IGROV1 ovarian; 3.82 µM with NCI-H460 lung; 11.4 µM with OVCAR-8 ovarian. Further, the TGI with SK-OV-3 ovarian came out at 13.9 µM; in the assay on SW-620 colon, 4.1 µM; in the assay with TK-10 renal it was 9.75 µM; in the assay with UO-31 renal, 9.81 µM.

For `O=S1CCN(Cc2ccc(-c3ccc4ncnc(Nc5ccc(OCc6ccccc6)c(F)c5)c4c3)o2)CC1`, the GI50 in the assay with EKVX NSCLC was 0.212 µM; in the assay with HOP-62 NSCLC, 13.8 µM; with HOP-92 NSCLC, 3.76 µM; in the assay with IGROV1 ovarian it was 1.29 µM; with NCI-H460 lung, 7.91 µM; with OVCAR-8 ovarian it was 11.4 µM. For the same compound, the GI50 in the assay with SK-OV-3 ovarian is 0.0713 µM; in the assay on SW-620 colon, 10.8 µM; with TK-10 renal, 0.232 µM; in the assay on UO-31 renal, 4.85 µM. For the same compound, the TGI in the assay on EKVX NSCLC is above 25 µM; in the assay on HOP-62 NSCLC, above 25 µM; in the assay on HOP-92 NSCLC, 17.7 µM; in the assay with IGROV1 ovarian, above 25 µM; in the assay with NCI-H460 lung, above 25 µM; in the assay with OVCAR-8 ovarian, above 25 µM. The TGI in the assay with SK-OV-3 ovarian is 0.226 µM; with SW-620 colon, above 25 µM; in the assay with TK-10 renal, above 25 µM; with UO-31 renal it was above 25 µM.

Regarding `[CH3][Sn]([CH3])([CH3])[O]C(=O)C(O)c1ccccc1` (stereo not given), the GI50 in the assay on EKVX NSCLC was 5.36 µM; with HOP-62 NSCLC, 2.12 µM; with HOP-92 NSCLC, 2.91 µM; with IGROV1 ovarian it was 8.47 µM; in the assay with NCI-H460 lung, 3.9 µM; in the assay on OVCAR-8 ovarian it was 4.65 µM. The GI50 in the assay with SK-OV-3 ovarian is 10.1 µM; in the assay with SW-620 colon it was 5.13 µM; in the assay with TK-10 renal, above 59.3 µM; with UO-31 renal, 4.16 µM. Further, the TGI was 55.7 µM in the assay on EKVX NSCLC; 4.4 µM with HOP-62 NSCLC; 14.4 µM in the assay on HOP-92 NSCLC; above 87.3 µM in the assay on IGROV1 ovarian; above 69.8 µM in the assay with NCI-H460 lung; above 54.9 µM with OVCAR-8 ovarian. Also, the TGI with SK-OV-3 ovarian was 47.2 µM; in the assay on SW-620 colon, above 100 µM; in the assay on TK-10 renal, above 100 µM; in the assay with UO-31 renal, 31.5 µM.

`O=C(O)CC1C(=O)OC2C3COC(=O)c4cc(O)c(O)c(O)c4-c4c(cc(O)c(O)c4O)C(=O)OC2C(OC(=O)c2cc(O)c(O)c4c2C1C(O)C(=O)O4)C(OC(=O)c1cc(O)c(O)c(O)c1)O3` (stereo not given): the TGI is 66.8 µM in the assay on EKVX NSCLC; above 100 µM in the assay on HOP-62 NSCLC; 52.6 µM in the assay with HOP-92 NSCLC; above 100 µM in the assay with IGROV1 ovarian; 31.4 µM with NCI-H460 lung; 67.2 µM in the assay with OVCAR-8 ovarian. Moreover, the TGI in the assay with SK-OV-3 ovarian, with SW-620 colon, with TK-10 renal and in the assay with UO-31 renal was above 100 µM each time.

`COc1cc(-c2ccc(Nc3ccccc3C(=O)O)c(OC)c2)ccc1Nc1ccccc1C(=O)O`: the TGI with EKVX NSCLC is above 97.4 µM; in the assay with HOP-62 NSCLC it was 49.8 µM; in the assay with HOP-92 NSCLC, 66.9 µM; in the assay on IGROV1 ovarian, above 100 µM; in the assay with NCI-H460 lung, 36.7 µM; in the assay on OVCAR-8 ovarian, 81.5 µM. Further, the TGI was above 100 µM in the assay with SK-OV-3 ovarian, above 100 µM in the assay on SW-620 colon, above 89 µM in the assay with TK-10 renal and above 58.9 µM with UO-31 renal.

Values taken from PubChem BioAssay (NCI).
